Results: US6022699A, “Myeloperoxidase assay of endotoxin-induced inflammation” (Alcon Laboratories, Inc., priority 1999, dated 2000)
“Also recorded” adds a separate entry of the source. Blank lines part the entries; values can stand above or below the compound they belong to.

Key:
[1] = tested on: PMN infiltrates within the different compartments of the eye; assay: Histopathologic evaluation of PMN infiltrates in eye sections; format: in vivo, Lewis rat; details: topical dexamethasone-treated animals
Protocol: Inhibition of PMN influx into ocular tissue of the Lewis rat by dexamethasone was evaluated as follows. Dexamethasone suspensions were prepared in a carbopol ophthalmic suspension vehicle at concentrations of 0.0033%, 0.01%, 0.033%, 0.04% and 0.10%, w/v. A 5 μL aliquot of test drug or vehicle was applied topically to each eye of the experimental animals 24, 20, and 4 hours prior to, at the time of, and 4 and 20 hours after LPS foot pad injection. Twenty-four (24) hours following LPS administration, eyes were enucleated, quickly frozen on dry ice and stored at -70° C. until used for tissue extraction and assessment of MPO activity. Alternatively, eyes were enucleated and fixed in a solution of phosphate buffered (40 mM) formalin (4%), pH 6.0. Eyes were embedded in paraffin and sectioned. Using light microscopy, hematoxylin- and eosin-stained sections were examined for the presence and distribution of PMN infiltrates within the different compartments of the eye. Infiltrates were ranked subjectively on a scale ranging from 0 to 5, where 0=not remarkable, 1=minimal, 2=slight/mild, 3=moderate, 4=moderately severe, and 5=severe/high.

[2] = target: T1, Human sputum myeloperoxidase (HSMPO) (Homo sapiens, UniProt P05164); assay: Spectrophotometric (460 nm) assay of MPO-catalyzed oxidation of o-DA; format: biochemical
T1 construct: mature light and heavy chains from one precursor
T1 sequence (P05164 165-745): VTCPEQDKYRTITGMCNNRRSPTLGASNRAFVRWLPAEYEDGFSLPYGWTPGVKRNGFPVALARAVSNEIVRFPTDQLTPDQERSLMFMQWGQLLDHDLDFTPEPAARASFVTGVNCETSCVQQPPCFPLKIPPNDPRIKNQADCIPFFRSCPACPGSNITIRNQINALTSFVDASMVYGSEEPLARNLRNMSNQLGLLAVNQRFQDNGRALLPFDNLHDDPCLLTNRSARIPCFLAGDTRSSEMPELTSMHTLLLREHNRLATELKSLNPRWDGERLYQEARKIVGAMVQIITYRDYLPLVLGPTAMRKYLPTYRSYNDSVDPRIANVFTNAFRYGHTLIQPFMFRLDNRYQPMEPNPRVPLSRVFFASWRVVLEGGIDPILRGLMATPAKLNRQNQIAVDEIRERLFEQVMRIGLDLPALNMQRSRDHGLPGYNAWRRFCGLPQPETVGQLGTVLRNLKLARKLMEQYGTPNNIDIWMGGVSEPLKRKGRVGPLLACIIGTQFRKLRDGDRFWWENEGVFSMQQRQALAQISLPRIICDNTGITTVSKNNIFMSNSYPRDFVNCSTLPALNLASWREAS
Protocol: N-ethylmaleimide (NEM), o-DA (3,3'-dimethoxybenzidine dihydrochloride), HTA-Br, LPS (lipopolysaccharide, E. coli 0111:B4), heparin, dexamethasone,histopaque 1083 and histopaque 1119 were obtained from Sigma Chemical Company, St. Louis, Mo. Dextran-100 was a product of Crescent Chemical Company, Hauppauge, N.Y. Hydrogen peroxide (30%) was obtained from J. T. Baker and stored at 4° C. All other chemicals used were of the highest purity available. Human sputum myeloperoxidase (HSMPO) was obtained from Elastin Products Co., Pacific, Mo. The enzyme (2.4 mg solid) was dissolved in 2.4 mL of 50 mM potassium phosphate buffer (pH 6.0), and stored in 0.1 mL aliquots at -20° C., then diluted 10-fold with 50 mM potassium phosphate buffer (pH 6.0) to provide a HSMPO concentration of 0.1 mg/mL.
To evaluate potential assay interference by ASC, conditions were selected which permitted the spectrophotometric assessment of ASC effects on the extent of o-DA oxidation. This was accomplished using sub-saturating concentrations of H2 O2 (37 mM), 1.5 mM o-DA a nd excess enzyme. MPO activity was assayed at room temperature in a final volume of 3.0 mL containing 50 mM potassium phosphate buffer (pH 6.0), 37 mM H2 O2, and 1.5 mM o-DA. Reactions were initiated by addition of 2 mg HSMPO: (a) control reaction, (b) ASC (3.2 mM) added 3.6 minutes after initiation of the reaction, (c) ASC (32 mM) added just prior to the initiation of the reaction and (d) ASC (64 mM) added just prior to the initiation of the reaction.
The effect of GSH on o-DA oxidation by HSMPO was assessed in an analogous fashion. MPO activity was assayed at room temperature in 3.0 mL of 50 mM potassium phosphate (pH 6.0), supplemented with 37 mM H2 O2, and 1.5 mM o-DA. (a) HSMPO (2 mg) was added 2 minutes after addition of NEM (6.6 mM) and GSH (1.65 mM), (b) NEM (6.6 mM) was added 5 minutes prior to addition of HSMPO (2 mg) (c) GSH (3.3 mM) was added 3.5 minutes after initiation of the reaction by addition of HSMPO (2 mg), (d) GSH (0.33 mM) was added just prior to initiation of the reaction with HSMPO (2 mg) with NEM (6.6 mM) added 20 seconds following initiation of the reaction, (e) GSH (0.33 mM) was added just prior to initiation of the reaction with HSMPO (2 mg) with NEM (6.6 mM) added 1.0 minute following initiation of the reaction, and (f) GSH (1.65 mM) was added just prior to initiation of the reaction.

SMILES: C[C@@H]1C[C@H]2[C@@H]3CCC4=CC(=O)C=C[C@]4(C)[C@@]3(F)[C@@H](O)C[C@]2(C)[C@@]1(O)C(=O)CO [dexamethasone]
PMNs in anterior and posterior compartments and associated ocular tissue (histopathology) [1]: dose dependent decline in PMNs

effect on the 460 nm absorbance attained ([2]; ASC 3.2 mM added to control reaction when enzyme catalysis had ceased): little effect
development of absorbance at 460 nm ([2]; ASC 64 mM added just prior to initiation): fully abolished
interference in the spectrophotometric assay of MPO, ASC compared with GSH ([2]; concentration dependent): more effective than GSH
SMILES: O=C1O[C@H]([C@@H](O)CO)C(O)=C1O [ASC, ascorbic acid]

SMILES: CCN1C(=O)C=CC1=O [NEM, N-ethylmaleimide]
inhibitory effect of GSH ([2]; NEM 6.6 mM added together with GSH 1.65 mM 2 minutes prior to addition of enzyme): fully abolished
effect on MPO activity ([2]; NEM alone (6.6 mM), absence of GSH): does not affect MPO catalysis; also recorded: little effect on MPO activity

SMILES: N[C@@H](CCC(=O)N[C@@H](CS)C(=O)NCC(=O)O)C(=O)O [GSH, glutathione]
increase in 460 nm absorbancy ([2]; GSH 1.65 mM present at the initiation of the MPO reaction): fully prevented
change in absorbancy ([2]; GSH 3.3 mM added to control peroxidase reactions that had ceased): little change in absorbancy
